Source: the supplement of paper PMC10307832

How the values were obtained:
Assay in all cases: relative viability (nuclei count vs DMSO), 5 days (fraction); higher = more cells survive
Vandetanib + Pictilisib = compound: COc1cc2/c(=N/c3ccc(Br)cc3F)nc[nH]c2cc1OCC1CCN(C)CC1 [Vandetanib] + CS(=O)(=O)N1CCN(Cc2cc3nc(-c4cccc5[nH]ncc45)nc(N4CCOCC4)c3s2)CC1 [Pictilisib] (partner 1 µM)
Method in brief: (§1)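 Dosing by pin tool came one day after lung cancer cell lines were seeded in 1536-well plates, using either one drug or a fixed anchor-drug dose plus five library-drug doses (not always all listed) in √10 steps. After 5 days, nuclei were counted on 4× images. Relative viability is treated-well nuclei count divided by vehicle-well nuclei count, and values are medians of duplicate plates.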

Vandetanib + Phenformin = compound: COc1cc2/c(=N/c3ccc(Br)cc3F)nc[nH]c2cc1OCC1CCN(C)CC1 [Vandetanib] + N=C(N)NC(=N)NCCc1ccccc1 [Phenformin] (partner 250 µM)
Method in brief: as §1

NVP-TAE684 + Trametinib = compound: COc1cc(N2CCC(N3CCN(C)CC3)CC2)ccc1Nc1ncc(Cl)c(Nc2ccccc2S(=O)(=O)C(C)C)n1 [NVP-TAE684] + CC(=O)Nc1cccc(-n2c(=O)n(C3CC3)c(=O)c3c(Nc4ccc(I)cc4F)n(C)c(=O)c(C)c32)c1 [Trametinib] (partner 0.02 µM)
Method in brief: as §1

[1] = compound: C1=CC=C2C(=C1)N=C(S2)C(C#N)C3=NC(=NC=C3)NCCC4=CN=CC=C4 + O=C(CCCCCCC(=O)Nc1ccccc1)NO [Vorinostat] (partner 1 µM)
Method in brief: as §1

UMC-11
relative viability (Vandetanib + Pictilisib; first compound 0.02 µM): 0.75 | relative viability (Vandetanib + Pictilisib; first compound 0.06325 µM): 0.78 | relative viability (Vandetanib + Pictilisib; first compound 0.2 µM): 0.694 | relative viability (Vandetanib + Pictilisib; first compound 0.6325 µM): 0.667 | relative viability (Vandetanib + Pictilisib; first compound 2 µM): 0.857 | relative viability (Vandetanib + Phenformin; first compound 0.02 µM): 0.3 | relative viability (Vandetanib + Phenformin; first compound 0.06325 µM): 0.308 | relative viability (Vandetanib + Phenformin; first compound 0.2 µM): 0.33 | relative viability (Vandetanib + Phenformin; first compound 0.6325 µM): 0.289 | relative viability (Vandetanib + Phenformin; first compound 2 µM): 0.335 | relative viability (NVP-TAE684 + Trametinib; first compound 0.2 µM): 0.701 | relative viability (NVP-TAE684 + Trametinib; first compound 0.6325 µM): 0.636 | relative viability (NVP-TAE684 + Trametinib; first compound 2 µM): 0.434 | relative viability ([1]; first compound 0.01581 µM): 0.36 | relative viability ([1]; first compound 0.05 µM): 0.402 | relative viability ([1]; first compound 0.1581 µM): 0.42 | relative viability ([1]; first compound 0.5 µM): 0.422
